Consider 15 molecules from PubChem BioAssay (NCI).

Values joined by “and” are separate entries in the source; they are usually repeats but may differ in a detail not shown here. Equal entries are not always repeated.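 Tested at 5 concentrations; 48 h exposure; 96-well plates; endpoints linearly interpolated, else capped at highest concentration. Here, GI50 denotes the concentration required for 50% inhibition of growth. TGI is the concentration that stops growth completely.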 Where a SMILES comes first, the peptide text is derived from it. The star is where a group is joined. Boc = CC(C)(C)OC(=O)*

Among the test systems are A498 renal; A549 NSCLC; CAKI-1 renal; HCC-2998 colon; MCF7 breast; MDA-N; OVCAR-8 ovarian; PC-3 prostate; RPMI-8226 leukemia; SR leukemia.
What all share (assay): NCI anticancer screen, dose series, 48 h

Consider `O=C(OCCN1CCCCC1)C(c1ccccc1)C1(O)CCSCC1` (stereo not drawn), for which the TGI in the assay on A498 renal, in the assay with A549 NSCLC, in the assay with CAKI-1 renal, with HCC-2998 colon, with MCF7 breast and with MDA-N was above 100 µM each time. Further, the TGI with OVCAR-8 ovarian, with PC-3 prostate, in the assay with RPMI-8226 leukemia and in the assay with SR leukemia was above 100 µM in each case.
Consider `O=c1[nH]c(=O)n(COCc2ccccc2)c2ccc([N+](=O)[O-])cc12`, for which the TGI in the assay on A498 renal, in the assay on A549 NSCLC, with CAKI-1 renal, in the assay with HCC-2998 colon, in the assay on MCF7 breast and in the assay on MDA-N was above 100 µM throughout. The TGI in the assay on OVCAR-8 ovarian, in the assay on PC-3 prostate and in the assay with SR leukemia was above 100 µM in each case.
In the case of `CC(C)(C)OC(=O)NC(Cc1ccc(O)cn1)C(N)=O` (stereo not drawn), the TGI in the assay on A498 renal, in the assay on A549 NSCLC, with CAKI-1 renal, with HCC-2998 colon, with MCF7 breast and in the assay with MDA-N was above 100 µM in each case. Also, the TGI with OVCAR-8 ovarian, in the assay with PC-3 prostate, with RPMI-8226 leukemia and with SR leukemia was above 100 µM in each case.
For the molecule `Cc1ccc(S(=O)(=O)NC(=O)NCCC(=O)O)cc1`, the TGI in the assay with A549 NSCLC, in the assay on MCF7 breast, with MDA-N, in the assay with OVCAR-8 ovarian, in the assay with PC-3 prostate and in the assay on RPMI-8226 leukemia was above 100 µM each time. The same molecule had a TGI in the assay with SR leukemia above 100 µM.
`COC(=O)C(Cc1c[nH]c2ccccc12)NC(=O)C(Cc1c[nH]c2ccccc12)NC(=O)C(Cc1c[nH]c2ccccc12)NC(=O)C(Cc1c[nH]c2ccccc12)NC(=O)OC(C)(C)C` (stereo not drawn) (Boc-WWWW-OMe; configuration not given here): the TGI in the assay with A549 NSCLC is above 100 µM; in the assay on CAKI-1 renal, above 100 µM; in the assay with HCC-2998 colon, 38.5 µM; in the assay with MCF7 breast, 0.0884 µM; with MDA-N it was 55.3 µM; in the assay on OVCAR-8 ovarian, above 100 µM. The TGI was determined as 96.5 µM in the assay with PC-3 prostate, 26 µM in the assay with RPMI-8226 leukemia and 56.6 µM in the assay on SR leukemia.
`S=C1C(=Nc2ccccc2)N(c2ccccc2)/C(=N\c2ccccn2)N1c1ccccc1`: the TGI was 30.4 µM in the assay on A498 renal; 38.6 µM in the assay on A549 NSCLC; 29 µM with CAKI-1 renal; 27.1 µM in the assay on HCC-2998 colon; 18.5 µM with MDA-N; 27.5 µM in the assay with OVCAR-8 ovarian. Besides, the TGI was 25.4 µM with PC-3 prostate, above 100 µM with RPMI-8226 leukemia and 60.8 µM with SR leukemia.
On to `O=C1OC2(C(F)(F)F)Oc3ccccc3CN2C12CCCCC2` (stereo not drawn), for which the TGI with A498 renal is above 100 µM; in the assay on A549 NSCLC, above 100 µM; in the assay on CAKI-1 renal, 56.1 µM; in the assay on HCC-2998 colon, above 100 µM; in the assay on MCF7 breast, above 100 µM; with MDA-N, above 100 µM. Besides, the TGI in the assay with OVCAR-8 ovarian is above 100 µM; in the assay with PC-3 prostate it was 88 µM; in the assay on SR leukemia, 74.8 µM.
For `CO/C(=N\N=C\c1ccc(Cl)cc1Cl)c1ccncc1`, the TGI with A549 NSCLC, with CAKI-1 renal, with MCF7 breast, in the assay with MDA-N, in the assay with OVCAR-8 ovarian and in the assay with PC-3 prostate was above 10 µM throughout. Besides, the TGI in the assay on RPMI-8226 leukemia and with SR leukemia was above 10 µM throughout.
For the molecule `Cc1cc(Nc2ccc(N=Nc3ccc(O)c4ncccc34)cc2)nc(C)n1`, the TGI with A498 renal was determined as 46.1 µM; in the assay with A549 NSCLC, 38.3 µM; with CAKI-1 renal, 71 µM; in the assay with MCF7 breast, 52.2 µM; in the assay with MDA-N it was 42.8 µM; in the assay on OVCAR-8 ovarian, 48.3 µM. The TGI in the assay with PC-3 prostate was above 69.9 µM; with RPMI-8226 leukemia, 32.5 µM; in the assay with SR leukemia, above 100 µM.
Take `Cc1cc(NS(=O)(=O)c2ccc(NC(=O)c3cccc4c(NNc5ccc(S(=O)(=O)N=C(N)N)cc5)c5ccccc5nc34)cc2)no1`: the TGI in the assay with A549 NSCLC, with CAKI-1 renal, in the assay with HCC-2998 colon, in the assay on MCF7 breast, in the assay with MDA-N and in the assay with OVCAR-8 ovarian was above 100 µM each time. Further, the TGI in the assay with PC-3 prostate, with RPMI-8226 leukemia and in the assay on SR leukemia was above 100 µM in each case.
Consider `CC(=NCCN(CCN=C(C)c1c(O)cc(C)oc1=O)CCN=C(C)c1c(O)cc(C)oc1=O)c1c(O)cc(C)oc1=O`, for which the TGI in the assay on A549 NSCLC, in the assay with HCC-2998 colon, with MCF7 breast, in the assay with MDA-N, in the assay with OVCAR-8 ovarian and in the assay on PC-3 prostate was above 100 µM each time. Moreover, the TGI in the assay with RPMI-8226 leukemia and in the assay with SR leukemia was above 100 µM each time.
As to `Cc1nccn1S(=O)(=O)c1ccc(Br)cc1Br`, the TGI was above 100 µM in the assay on A498 renal; above 100 µM in the assay with A549 NSCLC; above 100 µM in the assay with CAKI-1 renal; above 100 µM in the assay on MCF7 breast; 50.1 µM in the assay on MDA-N; above 100 µM in the assay with OVCAR-8 ovarian. In addition, the TGI with PC-3 prostate is above 100 µM; with RPMI-8226 leukemia, 47.4 µM; in the assay with SR leukemia, 78.3 µM.
As to `N/N=C1/C(=N/O)CCc2nonc21`, the TGI in the assay on A549 NSCLC, with CAKI-1 renal, with HCC-2998 colon, in the assay on MCF7 breast, with MDA-N and in the assay on OVCAR-8 ovarian was above 100 µM in each case. The TGI in the assay with PC-3 prostate, with RPMI-8226 leukemia and in the assay with SR leukemia was above 100 µM each time.
`COc1ccc(C(=C(I)c2ccccc2)c2ccc(OC)cc2)cc1`: the TGI with A549 NSCLC, in the assay on CAKI-1 renal, with HCC-2998 colon, in the assay on MCF7 breast, in the assay with MDA-N and in the assay on OVCAR-8 ovarian was above 100 µM in each case. For the same molecule, the TGI with PC-3 prostate, with RPMI-8226 leukemia and with SR leukemia was above 100 µM in each case.
Turning to `CN(C)CCCNc1c2ccccc2nc2cccc([N+](=O)[O-])c12`, the TGI in the assay with A498 renal was 0.00198 µM; in the assay with A549 NSCLC it was 0.0121 µM and 0.0944 µM; in the assay on HCC-2998 colon, 0.00194 µM and 0.0131 µM; with MCF7 breast, 0.00188 µM; with MDA-N, 0.00246 µM; in the assay with PC-3 prostate it was 0.00244 µM. Also, the TGI with SR leukemia is 0.0576 µM. In addition, the GI50 in the assay with CAKI-1 renal and in the assay with OVCAR-8 ovarian was below 0.001 µM throughout.
